The values below come from patent publication US9340492B2, “Meta-Diarylaniline or meta-diarylpyridinamine compound, preparation method and medical uses thereof” (INSTITUTE OF PHARMACOLOGY AND TOXICOLOGY ACADEMY OF …, priority 2012, dated 2016).

Series [1] has as its system NL4-3 virus (HIV, wild-type). The experiment in a line: Anti-HIV activity assay (TZM-bl cell model), NL4-3 wild-type. The note with it: human, TZM-bl cells infected with HIV-1 NL4-3 virus; CC50 (TZM-bl) / EC50 (NL4-3); read-out: SI, selective index, ratio of toxic CC50 value to active EC50 value. The format is cell-based. As to the method: (§1) The assay was carried out by reference to the document (Dang, Z, et al. J. Med. Chem. 2009, 52, 7887-7891). In particular, in a 96-well cell culture plate, solutions of the compounds to be tested at different concentrations were mixed with TZM-bl cells (from National Institutes of Health (NIH)) infected with 200 TCID50 NL4-3 virus, respectively. 2 days later, the culture medium was removed, 100 μl of Bright Glo reagent was added to each well, and Victor 2 luminometer was used to detect the […] of the cells.

For a further series, the system named is NL4-3 virus. The series is described as above. The note with it: Human immunodeficiency virus 1, NL43; NL4-3 HIV wild-type, TZM-bl cells; read-out: EC50, concentration effective to inhibit the replication of half of viruses. The format is cell-based. As to the method: as §1
A short description of series [2]: TZM-bl cytotoxicity assay (XTT). The format is cell-based. The note with it: human, TZM-bl cells, read-out: CC50, concentration effective to inhibit the growth of half of cells. As to the method:
The assay was carried out by reference to the document (Dang, Z, et al. J. Med. Chem. 2009, 52, 7887-7891). In particular, in a 96-well cell culture plate, solutions of Compounds 1-57 at different concentrations (100 μl) were mixed with an equivalent volume of TZM-bl cells (from National Institutes of Health (NIH)) (5×10^5/mL), and were incubated at 37° C. for 4 d. 50 μl of freshly prepared XTT solution (1 mg/mL) containing 0.02 μM PMS was added. Optical density at 450 nm was measured 4 h later.

Turning to `Cc1cc(/C=C/C#N)cc(C)c1Oc1cc(Nc2ccc(C#N)cc2)c([N+](=O)[O-])cc1C(F)(F)F` [Compound 1, 5-(4″-cyanovinyl-2″,6″-dimethylphenoxy)-N^1-(4′-cyanophenyl)-4-trifluoromethyl-2-nitroaniline], the melting point was in the range of 248 to 250 °C.

Regarding `COC(=O)c1cc([N+](=O)[O-])c(Nc2ccc(C#N)cc2)cc1Oc1c(C)cc(/C=C/C#N)cc1C` [Compound 3, 5-(4″-cyanovinyl-2″,6″-dimethylphenoxy)-N^1-(4′-cyanophenyl)-4-methoxycarbonyl-2-nitroaniline], the melting point lay within 260 to 262 °C.

Turning to `Cc1cc(/C=C/C#N)cc(C)c1Oc1cc(Nc2ccc(C#N)cc2)c([N+](=O)[O-])cc1CO` [Compound 5, N^1-(4′-cyanophenyl)-5-(4″-cyanovinyl-2″,6″-dimethylphenoxy)-4-hydroxymethyl-2-nitroaniline], the melting point was in the range of 232 to 234 °C.

The compound `Cc1cc(/C=C/C#N)cc(C)c1Oc1cc(Nc2ccc(C#N)cc2)c([N+](=O)[O-])cc1C(=O)O` [Compound 7, 4-carboxyl-5-(4″-cyanovinyl-2″,6″-dimethylphenoxy)-N^1-(4′-cyanophenyl)-2-nitroaniline] showed a melting point of 262 to 265 °C.

Consider `Cc1cc(/C=C/C#N)cc(C)c1Oc1cc(Nc2ccc(C#N)cc2)c([N+](=O)[O-])cc1C(N)=O` [Compound 9], for which the melting point lay in the range of 278 to 280 °C.

On to `Cc1cc(CCC#N)cc(C)c1Oc1cc(Nc2ccc(C#N)cc2)c(N)cc1C(N)=O` [Compound 10, 4-carbamoyl-N^1-(4′-cyanophenyl)-5-(4″-cyanoethyl-2″,6″-dimethylphenoxy)-1,2-phenylenediamine], for which the selectivity ratio at 2 days in series [1] is above 6760. Besides, in the series on NL4-3 virus, the EC50 amounted to 1.39 nM. Moreover, in series [2], the CC50 at 4 d was above 9400 nM.

Regarding `CNC(=O)c1cc([N+](=O)[O-])c(Nc2ccc(C#N)cc2)cc1Oc1c(C)cc(/C=C/C#N)cc1C` [Compound 11, N^1-(4′-cyanophenyl)-5-(4″-cyanovinyl-2″,6″-dimethylphenoxy)-4-(N-methylacylamino)-2-nitroaniline], the melting point was in the range of 218 to 220 °C.

For the compound `Cc1cc(/C=C/C#N)cc(C)c1Oc1cc(Nc2ccc(C#N)cc2)c([N+](=O)[O-])cc1S(N)(=O)=O` [Compound 13, N-(4′-cyanophenyl)-5-(4″-cyanovinyl-2″,6″-dimethylphenoxy)-4-aminosulfonyl-2-nitroaniline], the melting point lay in the range of 198 to 200 °C.

With `CCCc1cc(C)c(Oc2ccc(N)c(Nc3ccc(C#N)cc3)n2)c(C)c1` [Compound 16, N^2-(4-cyanoanilinyl)-6-(2,6-dimethyl-4-propylphenoxy)-3-aminopyridine], in series [1], the selectivity ratio at 2 days was 1120. Moreover, the EC50 with NL4-3 virus came to 14.7 nM. The CC50 at 4 d in series [2] turned out to be 16400 nM.

As for `Cc1cc(CO)cc(C)c1Oc1cc(Nc2ccc(C#N)cc2)c([N+](=O)[O-])cc1CO` [Compound 17, N-(4′-cyanophenyl)-5-(4″-hydroxymethyl-2″,6″-dimethylphenoxy)-4-hydroxymethyl-2-nitroaniline], the melting point was 216 to 218 °C.

`Cc1cc(CO)cc(C)c1Oc1cc(Nc2ccc(C#N)cc2)c(N)cc1CO` [Compound 18, N^1-(4′-cyanophenyl)-5-(4″-hydroxymethyl-2″,6″-dimethylphenoxy)-4-hydroxymethyl-1,2-phenylenediamine]: the selectivity ratio at 2 days in series [1] was above 1590. For the same compound, the EC50 with NL4-3 virus came out at 10 nM. Moreover, the CC50 at 4 d in series [2] was above 15900 nM.

Consider `N#CCCc1cc(F)c(Oc2ccc(N)c(Nc3ccc(C#N)cc3)n2)c(F)c1` [Compound 21, N^2-(4-cyanoanilinyl)-6-(2,6-difluoro-4-cyanoethyl-phenoxy)-3-aminopyridine], for which the selectivity ratio at 2 days in series [1] is above 3640. Besides, the EC50 with NL4-3 virus was 2.8 nM. In series [2], the CC50 at 4 d was above 10200 nM.

Take `COC(=O)CCc1cc(F)c(Oc2ccc(N)c(Nc3ccc(C#N)cc3)n2)c(F)c1` [Compound 23, N^2-(4-cyanoanilinyl)-6-(2,6-difluoro-4-methyl propionatephenoxy)-3-aminopyridine]: the selectivity ratio at 2 days in series [1] is above 155. The EC50 with NL4-3 virus is 99 nM. In series [2], the CC50 at 4 d was above 15300 nM.

Consider `N#Cc1ccc(Nc2nc(Oc3c(F)cc(CCCO)cc3F)ccc2N)cc1` [Compound 24, N^2-(4-cyanoanilinyl)-6-(2,6-difluoro-4-(3-hydroxypropyl)phenoxy)-3-aminopyridine], for which, in series [1], the selectivity ratio at 2 days was above 525. For the same compound, the EC50 with NL4-3 virus was 48 nM. Also, the CC50 at 4 d in series [2] is above 25200 nM.

Turning to `COc1cc(/C=C/C#N)cc(Br)c1Oc1ccc(N)c(Nc2ccc(C#N)cc2)n1` [Compound 26B], the selectivity ratio at 2 days in series [1] came out at 1210. For the same compound, the EC50 in the series with NL4-3 virus was found to be 25.7 nM. Also, the CC50 at 4 d in series [2] was determined as 21300 nM.

In turn, `CC(=O)/C=C/c1cc(F)c(Oc2ccc([N+](=O)[O-])c(Nc3ccc(C#N)cc3)n2)c(F)c1` [Compound 29, N^2-(4-cyanoanilinyl)-6-(2,6-difluoro-4-((E)-1-methyleneacetonyl)phenoxy)-3-nitropyridine] displayed a melting point of 275 to 277 °C.

Take `CC(=O)CCc1cc(F)c(Oc2ccc(N)c(Nc3ccc(C#N)cc3)n2)c(F)c1` [Compound 30, N^2-(4-cyanoanilinyl)-6-(2,6-difluoro-4-(2-butanonyl)phenoxy)-3-aminopyridine]: in series [1], the selectivity ratio at 2 days is above 2130. The EC50 in the series on NL4-3 virus was 4.7 nM. Further, in series [2], the CC50 at 4 d was above 9800 nM.

For `Cc1cc(CCC#N)cc(C)c1Oc1cc(Nc2ccc(C#N)cc2)c(N)cc1N` [Compound 35, 5-(4″-cyanoethyl-2″,6″-dimethylphenoxy)-N^1-(4′-cyanophenyl)-4-amino-1,2,4-triaminobenzene], the melting point is 118 to 120 °C. In series [1], the selectivity ratio at 2 days is above 820. Further, the EC50 in the series with NL4-3 virus was 6.1 nM. For the same compound, in series [2], the CC50 at 4 d is above 5000 nM.

In the case of `Cc1cc(CCC#N)cc(C)c1Oc1cc(Nc2ccc(C#N)cc2)c(N)cc1C(=O)NN` [Compound 36, 5-(4″-cyanoethyl-2″,6″-dimethylphenoxy)-N^1-(4′-cyanophenyl)-4-formhydrazide-1,2-phenylenediamine], in series [1], the selectivity ratio at 2 days was above 1190. Besides, in the series on NL4-3 virus, the EC50 amounted to 19.1 nM. The CC50 at 4 d in series [2] was above 22700 nM.

On to `CC(=O)OCc1cc(N)c(Nc2ccc(C#N)cc2)cc1Oc1c(C)cc(CCC#N)cc1C` [Compound 37, 4-acetyloxymethyl-N^1-(4′-cyanophenyl)-5-(4″-cyanoethyl-2″,6″-dimethylphenoxy)-1,2-phenylenediamine], for which, in series [1], the selectivity ratio at 2 days was above 1520. Also, the EC50 in the series with NL4-3 virus amounted to 3.29 nM. Besides, the CC50 at 4 d in series [2] was above 5000 nM.

In the case of `COCc1cc(N)c(Nc2ccc(C#N)cc2)cc1Oc1c(C)cc(CCC#N)cc1C` [Compound 38, N^1-(4′-cyanophenyl)-5-(4″-cyanoethyl-2″,6″-dimethylphenoxy)-4-methoxymethyl-1,2-phenylenediamine], the selectivity ratio at 2 days in series [1] is above 2290. Also, the EC50 in the series with NL4-3 virus is 2.18 nM. In addition, in series [2], the CC50 at 4 d is above 5000 nM.

For `Cc1cc(CCC#N)cc(C)c1Oc1cc(Nc2ccc(C#N)cc2)c(N)cc1COC(=O)C1CC1` [Compound 39, N^1-(4′-cyanophenyl)-5-(4″-cyanoethyl-2″,6″-dimethylphenoxy)-4-cyclopropionyloxymethyl-1,2-phenylenediamine], the selectivity ratio at 2 days in series [1] is above 3070. The EC50 in the series on NL4-3 virus amounted to 1.63 nM. Moreover, in series [2], the CC50 at 4 d is above 5000 nM.

Regarding `Cc1cc(CCC#N)cc(C)c1Oc1cc(Nc2ccc(C#N)cc2)c(N)cc1CN(C)C` [Compound 40, N^1-(4′-cyanophenyl)-5-(4″-cyanoethyl-2″,6″-dimethylphenoxy)-4-[N,N-dimethylaminomethyl]-1,2-phenylenediamine], the selectivity ratio at 2 days in series [1] was above 1830. Further, the EC50 in the series with NL4-3 virus stood at 2.73 nM. The CC50 at 4 d in series [2] was above 5000 nM.

As to `CCNC(=O)c1cc(N)c(Nc2ccc(C#N)cc2)cc1Oc1c(C)cc(CCC#N)cc1C` [Compound 41], the selectivity ratio at 2 days in series [1] is above 1080. Also, the EC50 in the series with NL4-3 virus is 4.63 nM. In series [2], the CC50 at 4 d was above 5000 nM.

In the case of `Cc1cc(CCC#N)cc(C)c1Oc1cc(Nc2ccc(C#N)cc2)c(N)cc1C(=O)N(C)C` [Compound 42, N^1-(4′-cyanophenyl)-5-(4″-cyanoethyl-2″,6″-dimethylphenoxy)-4-[N,N-dimethylformamido]-1,2-phenylenediamine], the selectivity ratio at 2 days in series [1] was above 810. In the series with NL4-3 virus, the EC50 worked out at 6.17 nM. In series [2], the CC50 at 4 d is above 5000 nM.

Take `Cc1cc(CCC#N)cc(C)c1Oc1cc(Nc2ccc(C#N)cc2)c(N)cc1C(=O)NC1CC1` [Compound 43, N^1-(4′-cyanophenyl)-5-(4″-cyanoethyl-2″,6″-dimethylphenoxy)-4-[N-cyclopropylformamido]-1,2-phenylenediamine]: in series [1], the selectivity ratio at 2 days is above 3760. Further, the EC50 in the series on NL4-3 virus was 1.33 nM. The CC50 at 4 d in series [2] was above 5000 nM.

Broadly, the melting point is the temperature, or range, at which the solid turns liquid.
